Data published in EP0726072A2, “Composition for the treatment of hypertension and congestive heart failure, containing an angiotensin II antagonist and an endopeptidase inhibitor” (BRISTOL-MYERS SQUIBB COMPANY, priority 1995, dated 1996).

Test system: angiotensin II receptors
Experiment: Inhibition of the pressor response to angiotensin II in conscious cardiomyopathic hamsters
Format: in vivo, hamsters of the BIO TO-2 strain
Conditions: for Change in mean arterial pressure: pressor response to angiotensin II 100 ng/kg i.v.
Protocol: The studies described in this experiment were conducted in male hamsters of the BIO TO-2 strain when they were approximately 260 days of age and weighed on average 115 g. These animals develop a genetic form of cardiomyopathy that progresses uniformly among animals through different stages of heart failure. By 240 - 300 days of age the cardiomyopathic hamsters are characterized (as compared with control hamsters) by low mean arterial pressure, a 40% reduction in cardiac output and a decrease in renal blood flow. They display elevated cardiac filling pressure, depressed ventricular function, increased peripheral vascular resistance and have an 8-10-fold increase in plasma atrial natriuretic peptide concentration.
The experiments were conducted in conscious, unrestrained, cardiomyphathic hamsters three hours after placement of cardivascular catheters using brief anesthesia. The catheters allowed measurement of mean arterial pressure, left ventricular end diastolic pressure, left ventricular systolic pressure and heart rate, and provided a means for the administration of agents intravenously.
Preliminary experiments were conducted in conscious cardiomyopathic hamsters to determine a dose regimen of BMS 186295 that would nearly completely block the pressor response to angiotensin II for at least two hours. The pressor responses to two challenges of angiotensin II (100 ng/kg, i.v. dissolved in 0.9% sodium chloride, 1 ml/kg) were determined. This dose of angiotensin II produced over a 30% increase in mean arterial pressure. Based on the preliminary experiments, BMS 186295 was administered to 5 cardiomyopathic hamsters at 30 µmol/kg, i.v. followed by continuous i.v. infusion at 1 µmol/kg per min. Challenges of angiotensin II were then repeated at 10- to 30-minute intervals up to 150 minutes following the bolus injection of BMS 186295.

CCCCC1=NC2(CCCC2)C(=O)N1Cc1ccc(-c2ccccc2-c2nnn[nH]2)cc1 [BMS 186295, 2-butyl-6,7,8,9-tetrahydro-3-[[2'-(1H-tetrazol-5-yl)[1,1'-biphenyl]-4-yl]-methyl]-1,3-diazaspiro[4.4]nonan-4-one]
pressor responses to angiotensin II, of the response before the administration of the inhibitor (following 30 µmol/kg, i.v. then 1 µmol/kg per min, up to 150 minutes): less than 17% | Change in mean arterial pressure (10′ after 30 µmol/kg, i.v. followed by 1 µmol/kg/min, i.v.): 3±2 mm Hg | Change in mean arterial pressure (20′ after 30 µmol/kg, i.v. followed by 1 µmol/kg/min, i.v.): 2±1 mm Hg | Change in mean arterial pressure (30′ after 30 µmol/kg, i.v. followed by 1 µmol/kg/min, i.v.): 3±2 mm Hg | Change in mean arterial pressure (40′ after 30 µmol/kg, i.v. followed by 1 µmol/kg/min, i.v.): 2±1 mm Hg | Change in mean arterial pressure (50′ after 30 µmol/kg, i.v. followed by 1 µmol/kg/min, i.v.): 1±1 mm Hg | Change in mean arterial pressure (60′ after 30 µmol/kg, i.v. followed by 1 µmol/kg/min, i.v.): 4±1 mm Hg | Change in mean arterial pressure (70′ after 30 µmol/kg, i.v. followed by 1 µmol/kg/min, i.v.): 5±2 mm Hg | Change in mean arterial pressure (80′ after 30 µmol/kg, i.v. followed by 1 µmol/kg/min, i.v.): 4±1 mm Hg | Change in mean arterial pressure (90′′ after 30 µmol/kg, i.v. followed by 1 µmol/kg/min, i.v.): 3±1 mm Hg | Change in mean arterial pressure (150′ after 30 µmol/kg, i.v. followed by 1 µmol/kg/min, i.v.): 2±1 mm Hg | Change in mean arterial pressure (120 min after 30 µmol/kg, i.v. followed by 1 µmol/kg/min, i.v.): 3±1 mm Hg | Change in mean arterial pressure (-10′, before BMS-186295): 31±3 mm Hg | Change in mean arterial pressure (-20′, before BMS-186295): 29±2 mm Hg
